Laboratory results: patent US7829560B2, “1,4-disubstituted naphthalenes as inhibitors of P38 MAP kinase” (Arqule, Inc., priority 2004, dated 2010)

How the values were obtained:
[1] = target: T1, p38α (Homo sapiens, UniProt Q16539); experiment: p38 MAP Kinase assay: inhibition of ATF2 phosphorylation, ELISA; assay type: biochemical; settings: ATF2 phosphorylation; read-out: [ENZ] P38 ALPHA, IC50, ELISA
T1 construct: p38 MAP Kinases are recombinant human full-length proteins with an amino-terminal GST fusion; GST (N); purchased Upstate Biotechnology Inc; host or cells: E. coli
Method in brief: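 In vitro phosphorylation of ATF2 at Thr69 by recombinant human GST-p38 MAP kinase, read by anti-phospho-ATF2 ELISA at 450 nm. Enzyme and compound pre-incubated 15 min at RT, then 30 min reaction at 37 °C with 40 μM ATP and 1.25 μM ATF2; buffer with or without 1% HSA (Method II or I).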

[2] = system: TNFα release from THP-1 cells; experiment: Inhibition of TNFα release from LPS-stimulated THP-1 cells, ELISA; assay type: cell-based; settings: Homo sapiens, THP-1, THP-1 cells, read-out: [CELL] THP-1, IC50, TNF ALPHA, ELISA
Method in brief: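 TNFα released into supernatant after 18 h of 10 μg/ml LPS stimulation was quantified by ELISA and IC50 taken as 50% reduction by non-linear regression. THP-1 cells (10^6/ml; medium with 10% FBS, serum-free or 1% HSA) saw compound for 30 min at 37 °C beforehand; final DMSO ≤0.5%.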

T1 sequence (Q16539 whole entry, the tested form may be a part): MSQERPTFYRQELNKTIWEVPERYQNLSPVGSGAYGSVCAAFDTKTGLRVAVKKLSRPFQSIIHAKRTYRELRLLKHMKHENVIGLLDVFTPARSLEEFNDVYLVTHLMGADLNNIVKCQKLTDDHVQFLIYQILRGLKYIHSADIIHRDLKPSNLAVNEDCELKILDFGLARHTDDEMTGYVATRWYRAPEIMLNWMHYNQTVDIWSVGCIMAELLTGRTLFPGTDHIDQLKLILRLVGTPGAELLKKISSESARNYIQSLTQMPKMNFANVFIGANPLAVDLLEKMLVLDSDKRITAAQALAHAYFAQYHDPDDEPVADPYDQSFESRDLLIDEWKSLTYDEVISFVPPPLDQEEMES

Structure (SMILES)	IC50 [1]	IC50 [2]	melting point
COCCN(C)c1nccc(Oc2ccc(NC(=O)c3cc(F)cc(N4CCCCC4)c3)c3ccccc23)n1 [Compound B414, 3-Fluoro-N-[4-({2-[(2-methoxyethyl)(methyl)amino]pyrimidin-4-yl}oxy)-1-naphthyl]-5-piperidin-1-ylbenzamide]	28.9 nM	580 nM	81 to 82 °C
C#CCN(C)c1nccc(Oc2ccc(NC(=O)c3cc(F)cc(N4CCCCC4)c3)c3ccccc23)n1 [Compound B407, 3-Fluoro-N-[4-({2-[methyl(prop-2-yn-1-yl)amino]pyrimidin-4-yl}oxy)-1-naphthyl]-5-piperidin-1-ylbenzamide]	56.1 nM	700 nM	116 to 117 °C
O=C(Nc1ccc(Oc2ccnc(N3CCC4(CC3)OCCO4)n2)c2ccccc12)c1cc(F)cc(N2CCOCC2)c1 [Compound B320, N-(4-{[2-(1,4-Dioxa-8-azaspiro[4.5]dec-8-yl)pyrimidin-4-yl]oxy}-1-naphthyl)-3-fluoro-5-morpholin-4-ylbenzamide]	7.1 nM	190 nM	115 to 117 °C
O=C(Nc1ccc(OCCN2CCOCC2)c2ccccc12)c1cc(F)cc(OC2CCCC2)c1 [Compound B225, 3-(Cyclopentyloxy)-5-fluoro-N-[4-(2-morpholin-4-ylethoxy)-1-naphthyl]benzamide]	439 nM	4090 nM	117 to 119 °C
COCCNc1nccc(Oc2ccc(NC(=O)c3cc(F)cc(N4CCOCC4)c3)c3ccccc23)n1 [Compound B319, 3-Fluoro-N-[4-({2-[(2-methoxyethyl)amino]pyrimidin-4-yl}oxy)-1-naphthyl]-5-morpholin-4-ylbenzamide]	1 nM	59.3 nM	95 to 97 °C
O=C(Nc1ccc(Oc2ccnc(N3CCCC(O)C3)n2)c2ccccc12)c1cc(F)cc(N2CCOCC2)c1 (stereo not drawn) [Compound B346, 3-Fluoro-N-(4-{[2-(3-hydroxypiperidin-1-yl)pyrimidin-4-yl]oxy}-1-naphthyl)-5-morpholin-4-ylbenzamide]	5.2 nM	431 nM	180 to 181 °C
CCOC(=O)N1CCC(Nc2nccc(Oc3ccc(NC(=O)c4cc(F)cc(N5CCOCC5)c4)c4ccccc34)n2)CC1 [Compound B341, Ethyl-4-{[4-({4-[(3-fluoro-5-morpholin-4-ylbenzoyl)amino]-1-naphthyl}oxy)pyrimidin-2-yl]amino}piperidine-1-carboxylate]	10.5 nM	590 nM	122 to 124 °C
O=C(Nc1ccc(Oc2ccnc(N3CCC(F)(F)CC3)n2)c2ccccc12)c1cc(F)cc(N2CCCCC2)c1 [Compound B423, N-(4-{[2-(4,4-Difluoropiperidin-1-yl)pyrimidin-4-yl]oxy}-1-naphthyl)-3-fluoro-5-piperidin-1-ylbenzamide]	111 nM	773 nM	172 to 174 °C
CC1CCCN1c1cc(F)cc(C(=O)Nc2ccc(OCCN3CCOCC3)c3ccccc23)c1 (stereo not drawn) [Compound B208, 3-Fluoro-5-(2-methylpyrrolidin-1-yl)-N-[4-(2-morpholin-4-ylethoxy)-1-naphthyl]benzamide]	167 nM	3640 nM	108 to 111 °C
CN(CC1OCCO1)c1nccc(Oc2ccc(NC(=O)c3cc(F)cc(N4CCOCC4)c3)c3ccccc23)n1 [Compound B349, N-[4-({2-[(1,3-Dioxolan-2-ylmethyl)(methyl)amino]pyrimidin-4-yl}oxy)-1-naphthyl]-3-fluoro-5-morpholin-4-ylbenzamide]	18.7 nM	74.7 nM	111 to 112 °C
O=C(Nc1ccc(Oc2ccnc(NC3CC3)n2)c2ccccc12)c1cc(F)cc(N2CCOCC2)c1 [Compound B321, N-(4-{[2-(Cyclopropylamino)pyrimidin-4-yl]oxy}-1-naphthyl)-3-fluoro-5-morpholin-4-ylbenzamide]	3.1 nM	76.1 nM	118 to 120 °C
CCN(C)c1cc(F)cc(C(=O)Nc2ccc(OCCN3CCOCC3)c3ccccc23)c1 [Compound B207, 3-[Ethyl(methyl)amino]-5-fluoro-N-[4-(2-morpholin-4-ylethoxy)-1-naphthyl]benzamide]	1120 nM	> 10000 nM	126 to 128 °C
O=C(Nc1ccc(OCCN2CCOCC2)c2ccccc12)c1cccc(-c2cccnc2)c1 [Compound B58, N-[4-(2-Morpholin-4-yl-ethoxy)-naphthalen-1-yl]-3-pyridin-3-yl-benzamide]	8810 nM	> 10000 nM	77 to 78 °C
CCN1CCN(c2nccc(Oc3ccc(NC(=O)c4cc(F)cc(N5CCOCC5)c4)c4ccccc34)n2)CC1 [Compound B345, N-(4-{[2-(4-Ethylpiperazin-1-yl)pyrimidin-4-yl]oxy}-1-naphthyl)-3-fluoro-5-morpholin-4-ylbenzamide]	13.3 nM	79.6 nM	185 to 186 °C
O=C(Nc1ccc(OCCCN2CCNCC2)c2ccccc12)c1cc(F)cc(N2CCCCC2)c1 [Compound B183, 3-Fluoro-N-[4-(3-piperazin-1-yl-propoxy)-naphthalen-1-yl]-5-piperidin-1-yl-benzamide]	1140 nM	> 10000 nM	70 to 72 °C
